The source of these data is patent publication US5912269A, “Butyrate prodrugs derived from lactic acid” (Vertex Pharmaceuticals, Inc., priority 1996, dated 1999).

The structures appear in SMILES notation. Where two headings read alike, the source gives them in different places.

The conditions of data set [1]: cited from earlier work.
The conditions of data set [2]: rhesus monkey, in vivo.
In a further data set the test system is γ globin chain. Briefly: % γ globin chain levels by HPLC, efficacy study in anemic rhesus monkeys. Type of data set: in vivo.
The subject of data set [3] is Fetal hemoglobin cells (F cells). Briefly: Fetal hemoglobin cells (% F cells), efficacy study in anemic rhesus monkeys. The data set is classed as in vivo.
Another data set deals with Hemoglobin F. Kind of data set: Hemoglobin F level in total hemoglobin (% Hb F) by HPLC, efficacy study in anemic rhesus monkeys. Type of data set: in vivo.
For data set [4], the system named is sickle cell anemia patients. The following applies: cited from earlier work.
Data set [5] in a line: Triglyceride and ALT levels during efficacy study in anemic rhesus monkeys. The note with it: all three groups, prior to or during the two phases.
The mark [6] stands for this setting: Group I (hydroxyurea in Phase I, hydroxyurea + compound IIIc in Phase II).
Where [7] appears, read: Groups II and III (compound IIIc).

Method for Hemoglobin F: (§1) The efficacy of compound IIIc administered in conjunction with hydroxyurea was tested on six anemic rhesus monkeys divided into three groups of two each. Each group was studied in two phases, as shown below. Fetal hemoglobin cells (F cells), Hemoglobin F level in total Hemoglobin (% Hb F) and % γ globin chain levels were monitored before and after each of the two phases. % F cells were measured according to the protocol described in Betke et al, Blut., 4, pp. 241-9 (1958). % Hb F and % γ globin chain synthesis were measured using High Performance Liquid Chromatography (HPLC) according to the protocol described in Huisman, J. Chromagtogr., 418, pp. 277 (1987).
Method for γ globin chain: as §1

For `CCCC(=O)OCOC(=O)C(C)(C)C` [AN-9], the “formaldehyde-producing metabolites in vivo” value in data set [1] was “elicit metabolites that may produce formaldehyde in vivo”.
Consider `NC(=O)NO` [Hydroxyurea, hydroxyurea], for which, in data set [2], the “levels of ALT” value was “no detectable difference” and the “levels of the triglycerides” value is on record as “no detectable difference”. For the same compound, the “% γ-globin chain levels” value with γ globin chain (setting [6]) is listed as “measurable increase”. In addition, in data set [3] (Animal 1, group I, hydroxyurea 50 mg/kg/day, 5 weeks, 8-10% before Phase I), the “% F cell count at the end of Phase I” value is 25%. In addition, in the data set with Hemoglobin F (setting [6]), the “% Hb F level” value is recorded as “measurable increase”. Also, the “fetal hemoglobin production and sickling crisis” value in data set [4] is “stimulates fetal hemoglobin production and reduces sickling crisis”.
In the case of `CCCC(=O)O[C@@H](C)C(=O)OCC` [Compound IIIc], in the data set with γ globin chain (setting [7]), the γ-globin chain levels entry is reported as “no measurable change”. In data set [3] (Animal 2, group II, compound IIIc 1 g/kg/TID, 5 weeks, 8-10% before Phase I), the “% F cell count at the end of Phase II” value was found to be 22%. The “% F cell count at the end of Phase I” value in data set [3] (Animal 2, group II, compound IIIc 1 g/kg/day, 5 weeks, 8-10% before Phase I) came to 15%. In addition, the “increase in % F cells” value in data set [3] (setting [7]) is listed as “small but significant increase”. Also, in data set [5], the “levels of ALT” value is listed as “no detectable difference” and the “levels of the triglycerides” value was “no detectable difference”. The HbF result with Hemoglobin F (setting [7]) was “no measurable change”.
